Calls of active or inactive are those of the source.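 How the source made its calls: active means clearly stronger inhibition of the target decarboxylase than of the coupling enzymes tested in parallel without it; inactive means the rest.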
Assays:
[1] = diphosphomevalonate decarboxylase inhibition dose curves – biochemical, PK/LDH-coupled NADH fluorescence, hexokinase coupling counter-screen, dose response (AID 550); details: purified DPM-DC, measured here: coupling enzymes counter-screen (hexokinase)
[2] = biological target: diphosphomevalonate decarboxylase (Streptococcus pneumoniae D39); assay: as above; details: purified DPM-DC

## Clc1cccc(-c2ccc(/C=N/n3cnnc3)o2)c1
[1]
  IC50: 3720 µM

## O=C(O)c1cccn2c(=O)c3ccccc3nc12
[1]
  IC50: 54 µM

## O=c1c2ccccc2[se]n1-c1ccccc1
[1]
  IC50: 38.4 µM

## CCn1nc(-c2ccccc2)nc2c(=O)n(C)c(=O)nc1-2
[1]
  IC50: 13.5 µM

## Cc1ccc(OCCn2c(C)c(/C=N/n3cnnc3)c3ccccc32)cc1
[2]
  outcome: inactive

## CCN(CC)c1nc2ccccc2n2cnnc12
[2]
  outcome: inactive

## COC(=O)c1cc(OC)c(OC)cc1NC(=O)c1oc2ccccc2c1C
[2]
  outcome: inactive

## COc1ccc(C2CC(c3cccc(C)c3)n3nc(N)nc3N2)cc1 (stereo unspecified)
[2]
  outcome: inactive

## CC(=NCc1ccco1)c1c(C)[nH]n(-c2nc3ccccc3s2)c1=O
[2]
  outcome: inactive

## CC1(C)C(C=C(Cl)Cl)C1C(=O)N1CCN(c2ccccc2)CC1 (stereo unspecified)
[2]
  outcome: inactive

## O=C1C(Cl)=C(NCC2CCCO2)C(=O)N1Cc1ccccc1 (stereo unspecified)
[2]
  outcome: inactive

## Cc1cnc(SCCc2ccncc2)nc1C
[2]
  outcome: inactive

## COc1cc(-c2nc3cnccc3n2C)cc(OC)c1OC
[2]
  outcome: inactive

## Cc1ccccc1CN1CCN(S(=O)(=O)c2ccc(F)cc2)CC1
[2]
  outcome: inactive

## Cc1nc2cc(NC(=O)NCc3ccco3)ccc2n1C
[2]
  outcome: inactive

## CCN(CC)c1ccc(/C=N/n2c(=S)[nH]nc(C)c2=O)cc1
[1]
  IC50: 39.5 µM

## Cc1cc(=O)oc2cc(OC(C)C(=O)O)c(Cl)cc12 (stereo unspecified)
[2]
  outcome: inactive

## Cc1cccc2cc(CN(Cc3ccco3)S(=O)(=O)c3ccc4c(c3)OCCO4)c(=O)[nH]c12
[2]
  outcome: inactive

## Cc1ccc(C2C3CN(C(C)C)CC=C3C(C#N)=C(N)C2(C#N)C#N)cc1 (stereo unspecified)
[2]
  IC50: 39.6 µM

## CCCn1c(C)nc2c(c1=O)c1nc3ccccc3nc1n2-c1ccc2c(c1)OCCO2
[2]
  outcome: inactive

## Nc1nc2c(s1)CCc1c-2cnn1-c1ccccc1
[1]
  IC50: 21 µM

## Cc1ccccc1Cc1c(C)nc2c(C(=O)N3CCN(Cc4ccc5c(c4)OCO5)CC3)cnn2c1C
[2]
  outcome: inactive

## COC(=O)Sc1nnc(-c2ccc(Br)cc2)o1
[1]
  IC50: 19.6 µM

## CCN(CC)CCCN(Cc1cc2cc3c(cc2[nH]c1=O)OCCO3)C(=O)Nc1ccccc1
[2]
  outcome: inactive

## CCn1nc(-c2cccs2)nc2c(=O)n(C)c(=O)nc1-2
[1]
  IC50: 5.99 µM

## O=S(=O)(Nc1cccc2ncccc12)c1cccs1
[2]
  outcome: inactive

## S=c1[nH]nc(-c2ccccc2)n1C1C=CCCC1 (stereo unspecified)
[2]
  outcome: inactive

## COc1cc(NC(=O)c2cccs2)c(C(=O)OCC(=O)NCc2ccco2)cc1OC
[2]
  outcome: inactive

## CCOc1ncccc1C(=O)Nc1ccc2c(C)cc(=O)oc2c1
[2]
  outcome: inactive

## N#CC(C(=O)NC1CCCCC1)c1nc2ccccc2nc1N1CCCCC1 (stereo unspecified)
[2]
  outcome: inactive

## CCCn1c(=O)c2ccccc2n2c(SCC(=O)/C(C#N)=C(\C)N)nnc12
[2]
  outcome: inactive

## CC(C)(CO)NC(=O)C(c1ccccc1)c1ccccc1
[2]
  outcome: inactive

## CN(C)CCSc1nnc(-c2ccccc2)o1
[2]
  outcome: inactive

## CC(C)CC(=O)NCC(C)NC(=O)CC(C)C (stereo unspecified)
[2]
  outcome: inactive

## Cn1c(=O)[nH]c(=O)c2c1nc(NC1CCCCC1)n2Cc1ccccc1
[2]
  outcome: inactive

## Cc1cc(-c2ccccc2)nc2cc(C(N)=O)nn12
[2]
  outcome: inactive

## O=C(Nc1ccc(N2CCCCC2)cc1)c1cccnc1
[2]
  outcome: inactive

## COc1ccc(C2C3=C(OC(C)=O)c4ccccc4C3=Nc3c2c(=O)n(C)c(=O)n3C)cc1 (stereo unspecified)
[2]
  outcome: inactive

## CC(NC(=O)c1cccc(N2CCCC2=O)c1)c1ccc2c(c1)OCCO2 (stereo unspecified)
[2]
  outcome: inactive

## O=C(c1ccccc1F)N(Cc1ccccc1)C1CCS(=O)(=O)C1 (stereo unspecified)
[2]
  outcome: inactive

## COc1cc(C(=O)Nc2ccc3c(c2)OCO3)ccc1-n1cnnn1
[2]
  outcome: inactive

## COc1cc2c(C#N)c(N3CCN(c4ccccc4OC)CC3)nc(N)c2c(N)n1
[2]
  outcome: inactive

## Cc1cc(=O)[nH]c(/N=C(\N)Nc2cccc3ccccc23)n1
[2]
  outcome: inactive

## COc1ccc(C(O)Cn2c(=N)n(CCCN(C)C)c3ccccc32)cc1 (stereo unspecified)
[2]
  outcome: inactive

## CCn1c(SCC(=O)Nc2cccc(C(C)=O)c2)nnc1C(C)C
[2]
  outcome: inactive

## CCOC(=O)c1c(CC(C)C)csc1NC=O
[2]
  outcome: inactive

## COCCNC(=O)c1cnn2c(C(F)(F)F)cc(-c3ccc4c(c3)OCO4)nc12
[2]
  outcome: inactive

## CCOc1ccc(N2CC(C(=O)OC)CC2=O)cc1 (stereo unspecified)
[2]
  outcome: inactive

## Cc1nc(-c2cnn(-c3ccccc3)c2)c2cc(C)oc2n1
[2]
  outcome: inactive

## CCCc1nnc(NC(=O)CN2CCOCC2)s1
[2]
  outcome: inactive

## COCCOC(=O)c1c(C)oc2ccc(NS(=O)(=O)c3ccc(F)cc3)cc12
[2]
  outcome: inactive

## CC(=O)Nc1cccc(NC(=O)CSc2nnnn2Cc2ccccc2)c1
[2]
  outcome: inactive

## COc1cccc2cc3c(=O)n(-c4ccccc4)nc-3oc12
[2]
  outcome: inactive

## Clc1c(-c2nnc3n2CCC3)sc2ccccc12
[2]
  outcome: inactive

## COc1ccc(N2C(C)=CS/C2=C(/C#N)c2nnc(N3CCOCC3)n2-c2ccccc2)cc1
[2]
  outcome: inactive

## C/C=C/Cn1c(N(C)Cc2ccccc2)nc2c1c(=O)[nH]c(=O)n2C
[2]
  outcome: inactive

## COC(=O)C1=C(C)OC(N)=C(C#N)C1c1cc(OC)c(OCC(N)=O)cc1Cl (stereo unspecified)
[2]
  outcome: inactive

## Cc1cc(O)c(C=Nc2cccc(Cl)c2)c(=O)o1
[2]
  outcome: inactive

## COc1cccc(C(=O)Nc2ccc(NC(=O)C(C)C)nc2)c1
[2]
  outcome: inactive

## COC(=O)Cn1c(=NC(=O)CSC(C)=O)sc2ccccc21
[2]
  outcome: inactive

## CC(/C=N/n1cnnc1)=C\c1ccco1
[1]
  IC50: 3440 µM

## Cn1c(=NC(=O)c2ccco2)sc2cccc(F)c21
[2]
  outcome: inactive

## CCOc1ccc(C(=O)O)cc1OC
[2]
  outcome: inactive

## COC(=O)c1cc2occc2n1CC(=O)Nc1ccc(OC)c(OC)c1OC
[2]
  outcome: inactive

## Cc1occc1C(=O)Nc1nnc(C(F)(F)F)s1
[2]
  outcome: inactive

## Cc1noc(C)c1CSc1nc2ccccc2s1
[2]
  outcome: inactive

## COc1cc2c(cc1OC)/C(=C/C(=O)N1CCOCC1)NC(C)(C)C2
[2]
  IC50: 38.8 µM

## Cc1cccc(C)c1NC(=O)C(c1ccccc1)N1CCN(C(=O)c2ccco2)CC1 (stereo unspecified)
[2]
  outcome: inactive

## CCCOC(=O)Cc1n[nH]c(=O)[nH]c1=O
[2]
  outcome: inactive

## CCC(=O)Nc1nnc(Sc2ccc(N(C)C)cc2)s1
[2]
  outcome: inactive

## CCOC(=O)c1[nH]c2ccc(OC)cc2c1NC(=O)CN1CCN(c2ccccn2)CC1
[2]
  outcome: inactive

## O=C1NC(=O)C(CC(=O)N(c2ccccc2)C2(C(=O)NC3CCCC3)CCCCC2)N1 (stereo unspecified)
[2]
  outcome: inactive

## CCc1cc(/C(Cc2ccc3ccccc3n2)=N\O)c(O)cc1O
[2]
  outcome: inactive

## CC(C)C(OC(=O)CN1C(=O)COc2ccccc21)C(=O)NC1CCCC1 (stereo unspecified)
[2]
  outcome: inactive

## Cc1ccc(-n2c(SCC(=O)NCc3ccco3)nnc2-c2cccnc2)c(C)c1
[2]
  outcome: inactive

## COc1cc(NC(=O)c2ccco2)c(OC)cc1NC(=O)CCC(=O)Nc1cc(C)ccc1C
[2]
  outcome: inactive

## COc1ccccc1NC(=O)CSc1nc(O)cc(=O)n1-c1ccccc1OC
[2]
  outcome: inactive

## Nc1nc(N)c2sc3nc4c(cc3c2n1)CCC4
[2]
  outcome: inactive

## O=C(CSc1ncnc2c1cnn2-c1ccccc1)Nc1ccc2c(c1)OCO2
[2]
  outcome: inactive

## CCOC(=O)C1=C(C)NC(C)=C(C(=O)OCC)C1c1cc2ccc(C)cc2[nH]c1=O
[2]
  IC50: 150 µM

## CCN(CC)CCOC(=O)c1ccc(N=CC2=C(O)CC(C)(C)CC2=O)cc1
[2]
  outcome: inactive

## CCOC(=O)C(Cc1ccccc1)C(=O)Nc1nccs1 (stereo unspecified)
[2]
  outcome: inactive

## COc1cccc(/C=N\n2c(C)nnc2C)c1OC
[2]
  outcome: inactive

## N#Cc1c(C(F)(F)F)cc(-c2ccco2)nc1SCc1ccncc1
[2]
  outcome: inactive

## Cc1nc2nc(C)c(CCC(=O)N3CCOCC3)c(C)n2n1
[2]
  outcome: inactive

## COCCn1nnnc1CN(Cc1cccnc1)Cc1cc2cc(OC)ccc2[nH]c1=O
[2]
  outcome: inactive

## Cc1c(C(=O)NCC2CCCO2)sc2nc(-c3ccccc3)cn12 (stereo unspecified)
[2]
  outcome: inactive

## CCC(=O)Nc1cccc(NC(=O)CSc2nnnn2Cc2ccccc2)c1
[2]
  outcome: inactive

## CCOc1cc(NC(=O)c2ccco2)c(OCC)cc1NC(=O)CCc1ccc(OC)cc1
[2]
  outcome: inactive

## CCN(CCNC(=O)C1CCN(c2nnc(-n3cccc3)s2)CC1)c1ccccc1
[2]
  outcome: inactive

## CCOC(=O)c1cc2c(=O)n(C)c3ccccc3c2s1
[2]
  outcome: inactive

## Cc1ccc(S(=O)(=O)N2CCOCC(=O)NCCOCCNC(=O)COCC2)cc1
[2]
  outcome: inactive

## Cc1cccc(C(=O)Nc2cc(=O)n(C)c(=O)n2C)c1
[2]
  outcome: inactive

## CN(C)[C@@H]1C(=O)C(C(N)=O)=C(O)[C@@]2(O)C(=O)C3=C(O)c4c(O)cccc4[C@@](C)(O)[C@H]3[C@H](O)[C@@H]12
[2]
  IC50: inactive
[1]
  IC50: 125 µM

## CCCN(CC(=O)c1cc(C)n(C)c1C)S(=O)(=O)c1cccc(C(F)(F)F)c1
[2]
  outcome: inactive

Source: PubChem BioAssay AID550 (SRMLSC, 2006)
